Assay: Pharmacokinetic evaluation of liquid bevirimat dosage forms, oral gavage, male Cynomolgus monkeys
Conditions: male, cynomolgus monkey, in vivo, po; for concentration at 72 hr: BLOQ=below 50 ng/mL; for AUC: AUCall
Description: Six male Cynomolgus monkeys having an initial body weight of about 3.5 to about 4.5 kg are allowed 7 days to acclimate to their individual housing units. Monkeys are supplied with water and a commercial diet ad libitum prior to the study initiation. Food is withheld from the monkeys for a minimum of twelve hours before the study and during the study until four hours postdose when food is returned. Water is supplied ad libitum.
Test formulations are administered to the monkeys at time 0 on appropriate days. Test formulations will be dosed orally via oral gavage or intravenously.
Samples are drawn at the frequencies indicated below. Each blood sample (0.5 mL) is collected from the monkey's saphenous vein via a butterfly catheter and placed into a chilled polypropylene tube containing sodium heparin as the anticoagulant. Blood samples are centrifuged at a temperature of 4° C. at a speed of 3,000 rpm for 15 minutes. All samples are maintained chilled throughout processing. Plasma is collected after centrifugation, pipetted into a 2-mL polypropylene microtube, and frozen on dry-ice pending analytical evaluation.

[1] = 50 mg FAE/monkey, Plasma concentration, 12.5 mg FAE/mL in 10% HPβCD, 50 mg FAE/monkey oral gavage, monkeys 186,116,120,AVG
[2] = 50 mg FAE/monkey, Plasma concentration, 12.5 mg FAE/mL in 15% EtOH:0.5% TPGS:15% PG:5% Glycerin, 0.2% Povidone K90, 50 mg FAE/monkey oral gavage, monkeys 117,118,119,AVG
[3] = 50 mg FAE/monkey, Plasma concentration, 25 mg/mL in 30% EtOH:1% TPGS:30% PG:10% Glycerin, 50 mg FAE/monkey oral gavage, monkeys 117,118,119,AVG
[4] = 50 mg FAE/monkey, Plasma concentration, 50 mg FAE/mL in 40% EtOH:40% PG:20% Glycerol, 50 mg FAE/monkey oral gavage, monkeys 117,118,119,AVG
[5] = 50 mg, 12.5 mg FAE/mL in 10% HPβCD, 50 mg FAE/monkey oral gavage, monkeys 186,116,120,AVG
[6] = 50 mg, 12.5 mg FAE/mL in 15% EtOH:0.5% TPGS:15% PG:5% Glycerin, 0.2% Povidone K90, 50 mg FAE/monkey oral gavage, monkeys 117,118,119,AVG
[7] = 50 mg, 12.5 mg FAE/mL in 40% PG, 20% Glycerin, 0.25% Tween80, 0.2% Povidone K15, 50 mg FAE oral gavage, monkeys 186,116,120,AVG

C=C(C)[C@@H]1CC[C@]2(C(=O)O)CC[C@]3(C)[C@H](CC[C@@H]4[C@@]5(C)CC[C@H](OC(=O)CC(C)(C)C(=O)O)C(C)(C)[C@@H]5CC[C@]43C)[C@@H]12 [Bevirimat, 3-O-(3′,3′-dimethylsuccinyl)betulinic acid]
concentration at 2 hr [1]: 59.2 µg/mL
concentration at 2 hr [2]: 51.3 µg/mL
concentration at 2 hr [3]: 56.7 µg/mL
concentration at 2 hr [4]: 25.8 µg/mL
concentration at 2 hr (50 mg FAE/monkey, Plasma concentration, 50 mg FAE/mL in 40% PG:20% Glycerin:1% TPGS:5% Tween 80 in SWFI, 50 mg FAE/monkey oral gavage, monkeys 117,118,119,AVG): 17.9 µg/mL
concentration at 4 hr [1]: 35000 ng/mL
concentration at 4 hr [2]: 33100 ng/mL
concentration at 6 hr [1]: 20700 ng/mL
concentration at 6 hr [2]: 23100 ng/mL
concentration at 8 hr (50 mg FAE/monkey, Plasma concentration, 8.0 hr, 12.5 mg FAE/mL in 10% HPβCD, 50 mg FAE/monkey oral gavage, monkeys 186,116,120,AVG): 13000 ng/mL
concentration at 24 hr (50 mg FAE/monkey, Plasma concentration, 24 hr, 12.5 mg FAE/mL in 10% HPβCD, 50 mg FAE/monkey oral gavage, monkeys 186,116,120,AVG): 1560 ng/mL
concentration at 72 hr [1]: 120 ng/mL
concentration at 72 hr (50 mg FAE/monkey, Plasma concentration, 12.5 mg FAE/mL in 15% EtOH:0.5% TPGS:15% PG:5% Glycerin, 50 mg FAE/monkey oral gavage, monkeys 117,118,119,AVG): 233 ng/mL
concentration at 72 hr [3]: 69.3 ng/mL
concentration at 72 hr [4]: 76 ng/mL
AUC [5]: 348 µg·h/mL
AUC [6]: 488 µg·h/mL
AUC [7]: 212 µg·h/mL
Cmax [5]: 59.2 µg/mL
Cmax [6]: 51.3 µg/mL
Cmax (50 mg, 12.5 mg FAE/mL in 15% Ethanol, 30% PG, 10% Glycerin, 50 mg FAE oral gavage, monkeys 117,118,119,AVG): 64.1 µg/mL
Cmax [7]: 42.8 µg/mL
Cmax (50 mg, 12.5 mg FAE/mL in 40% PG, 20% Glycerin, 1% TPGS, 0.25% Tween80, 0.2% Povidone K15, 50 mg FAE/monkey oral gavage, monkeys 117,118,119,AVG): 93.3 µg/mL
Cmax (50 mg, 50 mg FAE/mL in 40% EtOH:40% PG:20% Glycerol, 50 mg FAE/monkey oral gavage, monkeys 117,118,119,AVG): 25.8 µg/mL
Cmax (50 mg, 50 mg/monkey, PG/glycerin/Vitamin ETPGS/Tween80/Plasdone C15 formulation, AVG): 62.4 µg/mL
Cmax (50 mg, 50 mg/monkey, PG/glycerin/Vitamin ETPGS/Tween80/Plasdone C15 formulation, individual monkey): 55.1 µg/mL
Cmax (50 mg, 50 mg/monkey, PG/glycerin/Vitamin ETPGS/ethanol formulation, AVG): 60.1 µg/mL
Cmax (50 mg, 50 mg/monkey, PG/glycerin/Vitamin ETPGS/ethanol formulation, individual monkey): 58.9 µg/mL
half-life (50 mg, t1/2, 12.5 mg FAE/mL in 10% HPβCD, 50 mg FAE/monkey oral gavage, monkeys 186,116,120,AVG): 594 min
half-life (50 mg, t1/2, 12.5 mg FAE/mL in 15% EtOH:0.5% TPGS:15% PG:5% Glycerin, 50 mg FAE/monkey oral gavage, monkeys 117,118,119,AVG): 720 min
half-life (50 mg, t1/2, 12.5 mg FAE/mL in 15% EtOH:0.5% TPGS:15% PG:5% Glycerin, 0.2% Povidone K90, 50 mg FAE/monkey oral gavage, monkeys 117,118,119,AVG): 732 min
half-life (50 mg, t1/2, 12.5 mg FAE/mL in 15% Ethanol, 30% PG, 10% Glycerin, 50 mg FAE oral gavage, monkeys 117,118,119,AVG): 534 min
half-life (50 mg, t1/2, 12.5 mg FAE/mL in 40% PG, 20% Glycerin, 0.25% Tween80, 0.2% Povidone K15, 50 mg FAE oral gavage, monkeys 186,116,120,AVG): 480 min
half-life (50 mg, t1/2, 12.5 mg FAE/mL in 40% PG, 20% Glycerin, 1% TPGS, 0.25% Tween80, 50 mg FAE/monkey oral gavage, monkeys 186,116,120,AVG): 594 min
half-life (50 mg, t1/2, 12.5 mg FAE/mL in 40% PG, 20% Glycerin, 1% TPGS, 0.25% Tween80, 0.2% Povidone K15, 50 mg FAE/monkey oral gavage, monkeys 117,118,119,AVG): 624 min
half-life (50 mg, t1/2, 25 mg/mL in 30% EtOH:1% TPGS:30% PG:10% Glycerin, 50 mg FAE/monkey oral gavage, monkeys 117,118,119,AVG): 636 min
half-life (50 mg, t1/2, 50 mg FAE/mL in 40% EtOH:40% PG:20% Glycerol, 50 mg FAE/monkey oral gavage, monkeys 117,118,119,AVG): 588 min
half-life (50 mg, t1/2, 50 mg FAE/mL in 40% PG:20% Glycerin:1% TPGS:5% Tween 80 in SWFI, 50 mg FAE/monkey oral gavage, monkeys 117,118,119,AVG): 708 min
half-life (50 mg, t1/2, 10% HPβCD, 50 mg FAE/monkey oral gavage, monkeys 117,118,119,AVG): 600 min
half-life (50 mg, t1/2, oral, 50 mg/monkey, PG/glycerin/Vitamin ETPGS/Tween80/Plasdone C15 formulation, AVG): 384 min
half-life (50 mg, t1/2, oral, 50 mg/monkey, PG/glycerin/Vitamin ETPGS/Tween80/Plasdone C15 formulation, individual monkey): 516 min
half-life (50 mg, t1/2, oral, 50 mg/monkey, PG/glycerin/Vitamin ETPGS/ethanol formulation, AVG): 414 min
half-life (50 mg, t1/2, oral, 50 mg/monkey, PG/glycerin/Vitamin ETPGS/ethanol formulation, individual monkey): 372 min
Tmax (50 mg, tmax, 12.5 mg FAE/mL in 40% PG, 20% Glycerin, 1% TPGS, 0.25% Tween80, 0.2% NaCMC, 50 mg FAE/monkey oral gavage, monkeys 117,118,119,AVG): 1 h
concentration at 0.25 h (50 mg/monkey, Plasma Concentration, PG/glycerin/Vitamin ETPGS/Tween80/Plasdone C15 formulation, AVG): 64.6 ng/mL
concentration at 0.25 h (50 mg/monkey, Plasma Concentration, PG/glycerin/Vitamin ETPGS/Tween80/Plasdone C15 formulation, individual monkey): 69.8 ng/mL
concentration at 0.5 h (50 mg/monkey, Plasma Concentration, PG/glycerin/Vitamin ETPGS/Tween80/Plasdone C15 formulation, 0.50 hr, AVG): 3550 ng/mL
